The test system of data set [1] is mice. The data set can be described thus: Toxicity, oral administration to mice. The format is in vivo. The following applies: oral dose of 300 mg/kg.
In data set [2] the test system is mice. The data set can be described thus: Toxicity, intraperitoneal administration to mice. The following applies: mice, intraperitoneal dose of 200 mg per kg.
The next data set has as its system platelet aggregation. The data set can be described thus: Platelet anti-aggregation activity: sodium arachidonate-induced aggregation in rabbit plasma with a high platelet content. The format is cell-based. The following applies: Oryctolagus cuniculus, 50 mcg/ml sodium arachidonate; for inhibition at 5 µg/mL: 5 mcg/ml. The source says: In the presence of aspirin, this inhibition was 100% in a concentration of 2.5 mcg/ml COR 2860 and a concentration of 5 mcg/ml COR 2864. In the absence of aspirin, the inhibition was 100% with a concentration of 5 mcg/ml COR 2860 and 10 mcg/ml COR 2864.

For data set [3], the system named is phenylephrine-induced hypertension. The data set can be described thus: Alpha-blocking activity in vivo: antagonism of phenylephrine-induced hypertension in rats with spinal cord removal and bivagotomy. The following applies: intravenous; for inhibition in vivo at 3 µmol/kg / ED50: Rattus norvegicus; for inhibition in vivo at 3 µmol/kg: read-out: maximum activity (antagonism of phenylephrine-induced hypertension). The procedure:
(§1) Alpha-blocking activity was determined in vivo in mice with the test involving inhibition of mydriasis induced by norepinephrine. […] Thirty minutes later, 0.75 mg/kg norepinephrine was administered intravenously. […] In vivo alpha-blocking activity was also evaluated by determination of antagonism of phenylephrine-induced hypertension. The test products were administered by the intravenous route to rats that had undergone spinal cord removal and bivagotomy according to the technique by J. S. Gillespie and T. S. Muir (Br. J. Pharmac. Chemother. 30:78-87, 1967). The dosage, maximum activity, and the interval after which residual activity was equal to 50% of the maximum activity are presented below: […]

Data set [4] has as its system isolated guinea pig ileum (serotonin). The data set can be described thus: Antiserotonin activity in vitro: serotonin-induced contractions of isolated guinea pig ileum. The following applies: 2.10^-6 g/ml; serotonin 10^-6 g/ml. The text has this: Antiserotonin Activity: In vitro, contractions induced in isolated guinea pig ileum by 10^-6 g/ml serotonin were inhibited by COR 2838 in a concentration of 4.10^-7 g/ml and COR 2831 and COR 2833 in a concentration of 2.10^-6 g/ml.

For data set [5], the system named is passive cutaneous anaphylaxis. The data set can be described thus: Passive cutaneous anaphylaxis test in rats. The format is in vivo. As to the method:
Antiallergy-Antihistamine Activity: In the passive cutaneous anaphylaxis test, COR 2833 and COR 2838 given to rats in an intravenous dose of 10 mg/kg produced 53 and 60% activity, respectively. Under the same conditions, COR 2831 produced 67% activity in an oral dose of 5 mg/kg.

Data set [6] relates to isolated guinea pig ileum (histamine). The data set can be described thus: Antihistamine activity in vitro: histamine-induced contractions of isolated guinea pig ileum. The following applies: histamine 5.10^-7 g/ml.
Data set [7] deals with norepinephrine-induced mydriasis. The data set can be described thus: Alpha-blocking activity in vivo: inhibition of norepinephrine-induced mydriasis in mice. The following applies: 25 mg/kg, 0.75 mg/kg norepinephrine IV. The procedure:
as §1

Data set [8] can be described thus: Toxicity, intravenous administration to mice. The following applies: mouse, in vivo, intravenous route. In kind it is in vivo.
Data set [9] can be described thus: Toxicity, oral administration to mice. The format is in vivo. The following applies: mouse, in vivo, oral route, confidence interval in parentheses.
The test system of data set [10] is Alpha-1. The data set can be described thus: Alpha-1 blocking activity in vitro: antagonism of norepinephrine-induced contractions of isolated rabbit aorta strips. The following applies: norepinephrine 2.10^-6 mol/1.
In the next data set the test system is histamine. The data set can be described thus: Combined anaphylactic reaction (IgE) and cutaneous histamine reaction in the same rat: histamine reaction. In kind it is in vivo, Sprague-Dawley rat. As to the method:
(§2) Antihistamine-antiallergy activity was also determined by combining an anaphylactic reaction (IgE) and a cutaneous histamine reaction in the same animal (Sprague-Dawley rat). Activity was evaluated by the quantity of Evans blue liberated at each reaction site as compared with control animals receiving the administration vehicle. COR 2831 produced the following ED50 values in this test: […]

Another data set has as its system IgE. The data set can be described thus: Combined anaphylactic reaction (IgE) and cutaneous histamine reaction in the same rat: IgE reaction. The format is in vivo, Sprague-Dawley rat. The procedure:
as §2

The subject of data set [11] is Alpha-1. The data set can be described thus: Type of antagonism vis-a-vis norepinephrine on isolated rabbit aorta strips (cumulative curve method, Van Rossum, in presence of cocaine). The following applies: 30 minutes interval. The procedure:
Alpha-1 Blocking Activity: Alpha-1 blocking activity is evaluated in vitro by determination of the antagonism of contractions induced in isolated rabbit aorta strips by norepinephrine used in a concentration of 2.10^-6 mol/1 according to a technique derived from that described by Furchgott and Bhadrakom (J. Pharmacol. 108:129-43, 1953). The IC50 (concentration inhibiting 50% of the contractions) as well as the interval between introduction of the test product and of the […] into the bath, which corresponds to the maximum activity, are presented below for the derivatives according to the present invention: COR 2831, 90 min, 1.10·10^-7 (9.26·10^-8 -1.31·10^-7)mol/1; COR 2837, 30 min, 1.64·10^-6 (1.44·10^-6 -1.85·10^-6) mol/1; COR 2841, 60 min, 1.16·10^-6(9.24·10^-7 -1.46·10^-6) mol/1; COR 2843, 60 min, 9.82·10^ -7 (7.67·10^-7 -1.26·10^-6) mol/1; COR 2838, 60 min, 2.53·10^-6(2.15·10^-6 -2.98·10^-6 mol/1. The type of antagonism that COR 2831 exerts vis-a-vis norepinephrine was determined on the same type of preparation for an interval of 30 minutes, using the cumulative curve method according to Van Rossum in the presence of cocaine.

Data set [12] concerns spontaneously hypertensive rats. The data set can be described thus: Antihypertensive activity, spontaneously hypertensive rats, oral, two days, sphygmomanometer. In kind it is in vivo. The following applies: 100 mg/kg/day for two days, one hour after gavage. As to the method:
Antihypertensive Activity: The test products were administered orally to spontaneously hypertensive rats. Arterial pressure was measured indirectly with a sphygmomanometer.

In a further data set the test system is fasting mice. The data set can be described thus: Hypoglycemic activity: blood sugar of fasting mice subjected to an excess of glucose. The format is in vivo. The following applies: one hour after oral 100 mg per kg, excess of glucose (1 g per kg). As to the method:
(§3) Hypoglycemic Activity: One hour after oral administration of a dose of 100 mg/kg, COR 2839 produced a 21% reduction in the glucose tolerance curve after an excess of starch (2.5 g per kg). One hour after oral administration of a dose of 100 mg per kg, COR 2839 brought about a decrease of 24% in the blook sugar of fasting mice subjected to an excess of glucose (1 g per kg) at the time that the test product was tiven.

A further data set concerns glucose tolerance curve. The data set can be described thus: Hypoglycemic activity: glucose tolerance curve after an excess of starch. In kind it is in vivo. The following applies: one hour after oral 100 mg/kg, excess of starch (2.5 g per kg). The procedure:
as §3

Where a name gives a salt, the structure may show the parent alone. A value given as a limit tells only on which side of the number the result lay.

For orientation: inhibition means the percentage by which the read-out fell short of the control. By LD50 is commonly meant the dose at which mortality reaches 50%. The term ED50 denotes the dose that gives a 50% effect, or the effect in half of the subjects. By pA2 is commonly meant a measure of antagonist potency on a negative log scale.

As to `Cc1cc(OCCN2CCN(c3ccccc3Cl)CC2)c(C(C)C)cc1O` [COR 2864, 5-Isopropyl-2-methyl-4-((2-chlorophenyl)piperazinylethoxy)phenol hydrochloride], the deaths result in the data set with mice [1] and with mice [2] was “no deaths” throughout. Moreover, in the data set on platelet aggregation (in the presence of aspirin (1 mcg/ml)), the inhibition at 5 µg/mL stood at 100%. For the same molecule, in the data set on platelet aggregation (10 mcg/ml, in the absence of aspirin), the inhibition at 10 µg/mL stood at 100%. For the same molecule, the inhibition in vivo at 3 µmol/kg in data set [3] (3.10^-6 M/kg) worked out at 98.6%.
With `COc1ccccc1N1CCN(CCN(C)CCOc2cc(C)c(O)cc2C(C)C)CC1` [COR 2833, 5-Isopropyl-2-methyl-4-((N-methyl N-2-((2-methoxyphenyl)piperazinylethyl)amino)ethoxyphenoldihydrochloride], in [4], the “inhibition of serotonin-induced contractions” value is reported as “inhibited”. The “activity in the passive cutaneous anaphylaxis test” value in data set [5] (intravenous, 10 mg/kg) turned out to be 53%. For the same molecule, the “inhibition of histamine-induced contractions” value in data set [6] (concentration of 2.10^-6) came out at 80%.
On to `Cc1cc(OCCN2CCN(c3cccc(Cl)c3)CC2)c(C(C)C)cc1O` [COR 2842, 5-Isopropyl-2-methyl-4-((3-chlorophenyl)piperazinylethoxy)phenol hydrochloride], for which the deaths entry in the data set on mice [1] and in the data set on mice [2] was “no deaths” throughout. The inhibition in vivo at 3 µmol/kg in data set [3] (3.10^-6 M/kg) is 35.1%.
In the case of `COc1ccc(N2CCN(CCOc3cc(C)c(O)cc3C(C)C)CC2)cc1` [COR 2860, 5-Isopropyl-2-methyl-4-((4-methoxyphenylpiperazinyl)ethoxy)phenol dihydrochloride], the deaths entry with mice [1] and with mice [2] was “no deaths” each time. For the same molecule, the inhibition at 2.5 µg/mL with platelet aggregation (2.5 mcg/ml, in the presence of aspirin (1 mcg/ml)) was 100%. The molecule further displayed an inhibition at 5 µg/mL in the data set on platelet aggregation (in the absence of aspirin) of 100%. In data set [3] (3.10^-6 M/kg), the inhibition in vivo at 3 µmol/kg worked out at 39.7%.
With `CC(CCc1ccccc1)NCC(O)c1ccc(O)c(C(N)=O)c1` (stereo not shown) [labetalol, reference compound], the inhibition of mydriasis in data set [7] was determined as 58%.
For the molecule `COc1ccccc1N1CCN(CCOc2cc(C)c(O)cc2C(C)C)CC1` [COR 2831, 5-Isopropyl-2-methyl-4-(2-methoxyphenylpiperazinyl)ethoxy)phenol hydrochloride], the results for the LD50 in data set [8] and in [9] were 86 mg/kg and 1130 mg/kg, respectively. Besides, the deaths entry with mice [1] and with mice [2] was “no deaths” throughout. Besides, the “interval between introduction of the test product and of the […] into the bath, which corresponds to the maximum activity” value with Alpha-1 [10] was found to be 90 min. Further, the “inhibition of serotonin-induced contractions” value in data set [4] was “inhibited”. Further, the ED50 with histamine (IV route) is 0.37 mg/kg; in the data set on histamine (Oral route), 8 mg/kg; in data set [3] (2 min, after 2 min) it was 0.0195 µmol/kg; in data set [3] (0.5 h, after 30 min), 0.304 µmol/kg; in data set [3] (1 h, after 60 min) it was 0.84 µmol/kg; in the data set with IgE (IV route), 0.27 mg/kg. Moreover, in the data set on IgE (Oral route), the ED50 came to 14.4 mg/kg. In addition, in [3] (3.10^-6 M/kg), the inhibition in vivo at 3 µmol/kg is 129%. Further, the “interval after which residual activity was equal to 50% of the maximum activity” value in data set [3] (3.10^-6 M/kg) was more than 2 h. Further, the “activity in the passive cutaneous anaphylaxis test” value in [5] (oral, 5 mg/kg) stood at 67%. For the same molecule, in [6] (10^-5 g/ml), the “inhibition of histamine-induced contractions” value is reported as 80%. Further, the pA2 in the data set with Alpha-1 [11] (Arunlakshama and Schild method) worked out at 8.59±0.08. Also, the type of antagonism result with Alpha-1 [11] (vis-a-vis norepinephrine) is “competitive nature”. The results for the maximum pressure reduction in data set [12] (first day) and in [12] (second day) were 26% and 21%, respectively.
Consider `Cc1cc(OCCN2CCN(c3ccc(F)cc3)CC2)c(C(C)C)cc1O` [COR 2841, 5-Isopropyl-2-methyl-4-(p-fluorophenylpiperazinylethoxy)phenol hydrochloride], for which the deaths entry with mice [1] is “no deaths”. Besides, the inhibition in vivo at 3 µmol/kg in [3] (3.10^-6 M/kg) was found to be 39.8%.
On to `Cc1cc(OCCN2CCN(c3ccccc3C)CC2)c(C(C)C)cc1O` [COR 2843, 5-Isopropyl-2-methyl-4-(2-methylphenyl) piperazinylethoxy phenol hydrochloride], for which the deaths result with mice [1] and in the data set on mice [2] was “no deaths” in each case. Moreover, the inhibition in vivo at 3 µmol/kg in [3] (3.10^-6 M/kg) was determined as 112%.
In the case of `Cc1cc(OCCN2CCN(c3cccc(C)c3C)CC2)c(C(C)C)cc1O` [COR 2861, 5-Isopropyl-2-methyl-4-((2,3-dimethylphenylpiperazinyl)ethoxyphenol hydrochloride], the deaths result with mice [1] and in the data set with mice [2] was “no deaths” in each case. For the same molecule, in [3] (3.10^-6 M/kg), the inhibition in vivo at 3 µmol/kg worked out at 66.4%.
In the case of `Cc1cc(OCCN2CCN(c3ccccc3)CC2)c(C(C)C)cc1O` [COR 2837, 5-Isopropyl-2-methyl-4-phenylpiperazinylethoxyphenol hydrochloride], the deaths result in the data set with mice [1] and in the data set with mice [2] was “no deaths” in each case. Further, the inhibition in vivo at 3 µmol/kg in [3] (3.10^-6 M/kg) was 91.1%.
Take `Cc1cc(OCCN2CCN(c3cccc(C(F)(F)F)c3)CC2)c(C(C)C)cc1O` [COR 2839, 5-Isopropyl-2-methyl-4-(3-trifluoromethylphenyl) piperazinyl-ethoxy)phenol hydrochloride]: in the data set on mice [2], the deaths result is recorded as “no deaths”. The “decrease in the blood sugar” value in the data set on fasting mice was 24%. The “reduction in the glucose tolerance curve” value with glucose tolerance curve was 21%.

(Values after patent US4721715A, “Derivatives of 4-(arylpiperazinyl-ethylaminoethoxy) phenol useful for effecting hypolipidemic therapy or cardiovascular therapy” (Societe Cortial, S.A., priority 1984, dated 1988).)
